Laboratory results published in patent US6525094B1, “Method of treating hair loss using diphenylether derivatives” (The University of Texas Southwestern Medical Center, priority 1999, dated 2003).

System: male Sprague Dawley rats
Assay: Cardiotoxicity Assay (heart-to-body weight ratio)
Format: in vivo, rat
Conditions: 250 μg of test compound per kg subcutaneously once daily for 28 days, hearts weighed on day 30
Source text: The cardiotoxicity assay measures the potential of a test compound to adversely affect the cardiovascular system. As thyroid hormone (T3) damages the cardiovascular system, the heart enlarges. See, e.g., Gomberg-Maitland et al., “Thyroid hormone and Cardiovascular Disease”, American Heart Journal, Vol. 135(2), pp. 187-196 (1998); Klein and Ojamaa, “Thyroid Hormone and the Cardiovascular System”, Current Opinion in Endocrinology and Diabetes, Vol. 4, pp.341-346 (1997); and Klemperer et al., “Thyroid Hormone Therapy and Cardiovascular Disease”, Progress in Cardiovascular Diseases, Vol. 37 (4), pp. 329-336 (1996). This increases the weight of the heart relative to whole body weight. The cardiotoxicity assay herein below is used to test compounds for potentially adverse cardiac effects by measuring their effect on the heart-to-body weight ratio.
Two groups each of six male Sprague Dawley rats (Harlan Sprague Dawley, Inc., Indianapolis, Ind.) (each weighing from approximately 220 grams to 235 grams) are utilized. The first group is a vehicle control group and the second group is a test compound group. The length of the assay is 30 days, with treatment of vehicle or test compound in vehicle daily for 28 of those days as described below.
Prior to initiation of the assay, each rat is allowed to acclimate to standard environmental conditions for 5 days. […]

| SMILES | cardiac-sparing (index C = RT/RV, heart/body weight ratio of test compound group divided by that of vehicle control group; C less than 1.3 = cardiac-sparing) |
| --- | --- |
| N[C@@H](Cc1cc(I)c(Oc2ccc(O)c(I)c2)c(I)c1)C(=O)O [Example T3, thyronine] | not cardiac-sparing |
| N[C@@H](Cc1cc(I)c(Oc2cc(I)c(O)c(I)c2)c(I)c1)C(=O)O [Example T4, thyroxine] | not cardiac-sparing |
